In assay [1] the target is T1, human PRMT1 (Homo sapiens, UniProt Q99873).
T1 construct: GST-tagged PRMT1; made in house; host or cells: High Five insect cells (baculovirus)
The experiment in a line: PRMT1 Biochemical Assay (3H-SAM Flashplate, peptide substrate). In outline: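 GST-tagged PRMT1 from baculovirus-infected cells, preincubated with compounds 30 min at room temperature in 20 mM Bicine pH 7.6, 1 mM TCEP, 0.005% BSG, 0.002% Tween 20. Reaction started with ³H-SAM plus biotinylated peptide, stopped with 300 µM cold SAM.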

The target of assay [2] is T2, human PRMT6 (Homo sapiens, UniProt Q96LA8).
T2 construct: Flag-PRMT6-His; made in house; host or cells: HEK 293F cells (BacMam baculovirus)
The experiment in a line: PRMT6 Biochemical Assay (3H-SAM Flashplate, peptide substrate). Put shortly:
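Flag-PRMT6-His, expressed in mammalian cells from a BacMam vector, was preincubated with compound for 30 min at room temperature in Bicine pH 7.6 buffer with TCEP, BSG and Tween 20. Reactions were started with ³H-SAM and a biotinylated histone H4 36-50 peptide, then stopped with cold SAM (400 uM final). Labeled peptide was captured on streptavidin Flashplates, counted, and fitted to a 3- or 4-parameter curve.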

Where [3] appears, read: single experiment or average of multiple experiments.
Setting [4] is: Biochemical IC50 PRMT6, single experiment or average of multiple experiments.

Structures are written as SMILES. Structures can show the parent of a compound that is named as a salt. Where two headings read alike, the source gives them in different places.

T2 sequence (Q96LA8 with tags, fused parts or gaps): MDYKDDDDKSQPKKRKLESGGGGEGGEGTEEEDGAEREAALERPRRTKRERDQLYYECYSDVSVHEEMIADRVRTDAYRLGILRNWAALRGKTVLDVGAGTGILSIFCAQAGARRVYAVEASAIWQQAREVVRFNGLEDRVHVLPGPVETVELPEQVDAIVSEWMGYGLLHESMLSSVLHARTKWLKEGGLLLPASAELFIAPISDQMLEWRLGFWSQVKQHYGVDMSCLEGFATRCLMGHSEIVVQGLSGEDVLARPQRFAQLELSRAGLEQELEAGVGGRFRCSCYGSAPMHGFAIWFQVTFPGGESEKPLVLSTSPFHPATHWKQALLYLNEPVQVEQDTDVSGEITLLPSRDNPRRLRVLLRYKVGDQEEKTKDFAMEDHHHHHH
T1 sequence (Q99873 with tags, fused parts or gaps): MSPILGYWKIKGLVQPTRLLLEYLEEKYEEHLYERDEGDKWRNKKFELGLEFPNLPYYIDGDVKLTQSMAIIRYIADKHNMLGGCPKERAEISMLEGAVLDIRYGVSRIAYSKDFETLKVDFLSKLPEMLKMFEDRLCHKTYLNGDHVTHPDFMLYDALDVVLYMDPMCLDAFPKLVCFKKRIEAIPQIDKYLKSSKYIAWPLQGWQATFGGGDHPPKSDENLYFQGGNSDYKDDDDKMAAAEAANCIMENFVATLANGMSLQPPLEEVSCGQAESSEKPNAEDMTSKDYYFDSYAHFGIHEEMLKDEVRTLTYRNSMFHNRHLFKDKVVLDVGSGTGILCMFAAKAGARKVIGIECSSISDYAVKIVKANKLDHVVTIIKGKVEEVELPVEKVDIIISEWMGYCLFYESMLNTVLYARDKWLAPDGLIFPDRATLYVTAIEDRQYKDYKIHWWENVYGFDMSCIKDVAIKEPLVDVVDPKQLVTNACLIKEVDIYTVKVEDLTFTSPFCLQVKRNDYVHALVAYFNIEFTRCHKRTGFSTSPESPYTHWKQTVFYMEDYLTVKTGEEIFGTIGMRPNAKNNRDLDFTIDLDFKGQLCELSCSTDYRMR

A word on the IC50: it is the concentration at which inhibition is half-maximal. A low value points to higher potency. Turning to `Cc1cc(Cl)ccc1-c1n[nH]cc1CN(C)CCN` [Compound 133], the results for the IC50 in assay [1] (setting [3]) and in assay [2] (setting [4]) were 24.8 nM and 10.1 nM, respectively.
Regarding `CNCCN(C)Cc1c[nH]nc1-c1ccc(Oc2ccccc2)c(F)c1` [Compound 297], the IC50 was less than 100 nM in assay [1], 3.37 nM in assay [1] (setting [3]), less than 100 nM in assay [2] (Biochemical IC50 PRMT6) and 12.1 nM in assay [2] (setting [4]).
As to `CN(CCN)Cc1c[nH]nc1-c1ccc(C(F)(F)F)cc1Cl` [Compound 135], the IC50 in assay [1] (setting [3]) turned out to be 48.1 nM; in assay [2] (setting [4]), 28.9 nM.
As for `CN(CCN)Cc1n[nH]cc1-c1ccc(OC(F)(F)F)cc1` [Compound 105], the IC50 in assay [1] (setting [3]) came out at 8.85 nM; in assay [2] (setting [4]) it was 55.6 nM.
Regarding `CN(CCN)Cc1n[nH]cc1-c1ccc(C(F)(F)F)cc1` [Compound 103], the IC50 worked out at 10.2 nM in assay [1] (setting [3]) and 17 nM in assay [2] (setting [4]).
Turning to `CNCCN(C)Cc1c[nH]nc1-c1ccc(OCC2CC2)c(F)c1` [Compound 298], the IC50 in assay [1] was less than 100 nM; in assay [1] (setting [3]), 7.87 nM; in assay [2] (Biochemical IC50 PRMT6), less than 100 nM; in assay [2] (setting [4]), 26.9 nM.
With `CNCCN(C)Cc1c[nH]nc1-c1ccc(OC(COC)COC)cc1` [Compound 316], the IC50 is less than 100 nM in assay [1], 17.5 nM in assay [1] (setting [3]), less than 100 nM in assay [2] (Biochemical IC50 PRMT6) and 96.7 nM in assay [2] (setting [4]).
Turning to `CNCCN(C)Cc1c[nH]nc1-c1ccc(OC2CC(OC)C2)cc1` (stereo not drawn) [Compound 315], the 50% inhibitory concentration (IC50) was less than 100 nM in assay [1], 23.5 nM in assay [1] (setting [3]), less than 100 nM in assay [2] (Biochemical IC50 PRMT6) and 10.6 nM in assay [2] (setting [4]).
`CNCCN(C)Cc1c[nH]nc1-c1ccc(OC2CC2)c(F)c1` [Compound 301]: the IC50 in assay [1] is less than 100 nM; in assay [1] (setting [3]), 6.43 nM; in assay [2] (Biochemical IC50 PRMT6), less than 100 nM; in assay [2] (setting [4]), 25.3 nM.
In the case of `COc1cccc(-c2n[nH]cc2CN(C)CCN)c1` [Compound 130], the IC50 in assay [1] (setting [3]) was 135 nM; in assay [2] (setting [4]) it was 63.4 nM.
In the case of `CNCCN(C)Cc1cnn(C)c1-c1ccc(OC(C)C)cc1` [Compound 244, hydrochloride], the IC50 in assay [1] was less than 100 nM; in assay [1] (setting [3]) it was 8.68 nM; in assay [2] (Biochemical IC50 PRMT6), less than 100 nM; in assay [2] (setting [4]) it was 45.1 nM.
Regarding `CNCCN(C)Cc1c[nH]nc1-c1ccc(OCC2CCOCC2)cc1` [Compound 284], the IC50 in assay [1] is less than 100 nM; in assay [1] (setting [3]) it was 13.3 nM; in assay [2] (Biochemical IC50 PRMT6), less than 100 nM; in assay [2] (setting [4]), 40.5 nM.
For the molecule `Cc1cccc(-c2n[nH]cc2CN(C)CCN)c1` [Compound 131], the IC50 is 29.6 nM in assay [1] (setting [3]) and 12.1 nM in assay [2] (setting [4]).
In the case of `CN(CCN)Cc1n[nH]cc1-c1ccc(OC2CC2)cc1` [Compound 119], the IC50 in assay [1] (setting [3]) worked out at 16.2 nM; in assay [2] (setting [4]) it was 88 nM.
`CN(CCN)Cc1c[nH]nc1-c1ccc(C(F)(F)F)c(Cl)c1` [Compound 117]: the IC50 in assay [1] (setting [3]) stood at 5.76 nM; in assay [2] (setting [4]), 4.87 nM.
For the molecule `CNCCN(C)Cc1c[nH]nc1-c1ccc(OCC2CCOC2)cc1` (stereo not drawn) [Compound 285], the IC50 was less than 100 nM in assay [1], 14.8 nM in assay [1] (setting [3]), less than 100 nM in assay [2] (Biochemical IC50 PRMT6) and 33.2 nM in assay [2] (setting [4]).
`CNCCN(C)Cc1c[nH]nc1-c1ccc(OC2CCC(O)CC2)cc1` (stereo not drawn) [Compound 299]: the IC50 in assay [1] was less than 100 nM; in assay [1] (setting [3]), 19.8 nM; in assay [2] (Biochemical IC50 PRMT6), less than 100 nM; in assay [2] (setting [4]), 15.9 nM.
`CNCCN(C)Cc1c[nH]nc1-c1ccc(OC(COC)CC(C)C)cc1` (stereo not drawn) [Compound 314]: the IC50 was less than 100 nM in assay [1], 18.2 nM in assay [1] (setting [3]), less than 100 nM in assay [2] (Biochemical IC50 PRMT6) and 38.6 nM in assay [2] (setting [4]).
Take `CN(CCN)Cc1c[nH]nc1-c1ccc(F)cc1F` [Compound 99]: the IC50 in assay [1] (setting [3]) was found to be 90.2 nM; in assay [2] (setting [4]), 27.9 nM.
In the case of `CNCCN(C)Cc1c[nH]nc1-c1ccc(OCCOC)cc1` [Compound 289], the IC50 in assay [1] was less than 100 nM; in assay [1] (setting [3]), 21.1 nM; in assay [2] (Biochemical IC50 PRMT6), less than 100 nM; in assay [2] (setting [4]) it was 36.5 nM.
Turning to `Cc1cc(C#N)ccc1-c1n[nH]cc1CN(C)CCN` [Compound 110], the IC50 in assay [1] (setting [3]) is 21.6 nM; in assay [2] (setting [4]), 16.5 nM.
Turning to `CNCCN(C)Cc1c[nH]nc1-c1ccc(OCC(C)C)cc1` [Compound 306], the IC50 was less than 100 nM in assay [1], 7.1 nM in assay [1] (setting [3]), less than 100 nM in assay [2] (Biochemical IC50 PRMT6) and 23.3 nM in assay [2] (setting [4]).
Turning to `CCC(CC)Oc1ccc(-c2n[nH]cc2CN(C)CCNC)cc1` [Compound 290], the IC50 in assay [1] was less than 100 nM; in assay [1] (setting [3]) it was 8.28 nM; in assay [2] (Biochemical IC50 PRMT6), less than 100 nM; in assay [2] (setting [4]), 11.5 nM.
As to `CN(CCN)Cc1c[nH]nc1-c1cccc(Cl)c1` [Compound 122], the IC50 in assay [1] (setting [3]) came to 24.3 nM; in assay [2] (setting [4]) it was 8.99 nM.
The matching figures for `CN(CCN)Cc1n[nH]cc1-c1ccc(C#N)cc1` [Compound 100]: 12 nM and 11.2 nM.
As to `CN(CCN)Cc1c[nH]nc1-c1ccc(C2CCOCC2)cc1` [Compound 98], the IC50 amounted to 5.84 nM in assay [1] (setting [3]) and 15.4 nM in assay [2] (setting [4]).
On to `CNCCN(C)Cc1c[nH]nc1-c1ccc(NCC(C)C)cc1` [Compound 296], for which the half-inhibitory concentration (IC50) in assay [1] is less than 100 nM; in assay [1] (setting [3]) it was 28.8 nM; in assay [2] (Biochemical IC50 PRMT6), less than 100 nM; in assay [2] (setting [4]) it was 33 nM.
Turning to `CCn1cc(CN(C)CCNC)c(-c2ccc(F)cc2)n1` [Compound 8], the IC50 in assay [1] (setting [3]) came to 1180 nM; in assay [2] (setting [4]) it was 287 nM.
For the molecule `CN(CCN)Cc1c[nH]nc1-c1ccc(OCC(F)(F)F)cc1` [Compound 96], the IC50 in assay [1] (setting [3]) worked out at 4.41 nM; in assay [2] (setting [4]) it was 7.09 nM.
Take `CC(=O)c1cccc(-c2n[nH]cc2CN(C)CCN)c1` [Compound 112]: the IC50 in assay [1] (setting [3]) turned out to be 81 nM; in assay [2] (setting [4]), 84.7 nM.
As for `CN(CCN)Cc1c[nH]nc1-c1cc(F)cc(F)c1` [Compound 111], the IC50 was determined as 18.9 nM in assay [1] (setting [3]) and 11.8 nM in assay [2] (setting [4]).
On to `CNCCN(C)Cc1c[nH]nc1-c1ccc(C(C)(C)COC)cc1` [Compound 313], for which the concentration for half-maximal inhibition (IC50) is less than 100 nM in assay [1], 34.9 nM in assay [1] (setting [3]), 101 to 1000 nM in assay [2] (Biochemical IC50 PRMT6) and 113 nM in assay [2] (setting [4]).
With `CNCCN(C)Cc1c[nH]nc1-c1ccc(OC2CCOCC2)c(Cl)c1` [Compound 292], the IC50 in assay [1] is less than 100 nM; in assay [1] (setting [3]), 27.3 nM; in assay [2] (Biochemical IC50 PRMT6), less than 100 nM; in assay [2] (setting [4]) it was 83.2 nM.
Take `COc1ccccc1-c1n[nH]cc1CN(C)CCN` [Compound 109]: the IC50 worked out at 244 nM in assay [1] (setting [3]) and 217 nM in assay [2] (setting [4]).
In the same order, the values of `CN(CCN)Cc1c[nH]nc1-c1ccc(Cl)c(F)c1` [Compound 118] are 2.94 nM and 3.18 nM.
As to `CNCCN(C)Cc1c[nH]nc1-c1ccc(OC2CCOCC2)c(F)c1` [Compound 291], the IC50 in assay [1] is less than 100 nM; in assay [1] (setting [3]) it was 15.6 nM; in assay [2] (Biochemical IC50 PRMT6) it was less than 100 nM; in assay [2] (setting [4]), 27.7 nM.
As for `CCN(CC)C(=O)c1ccc(-c2n[nH]cc2CN(C)CCN)cc1` [Compound 143], the IC50 was 116 nM in assay [1] (setting [3]) and 107 nM in assay [2] (setting [4]).
Regarding `CN(CCN)Cc1n[nH]cc1-c1ccc(OC(F)F)cc1` [Compound 138], the IC50 in assay [1] (setting [3]) worked out at 21.2 nM; in assay [2] (setting [4]) it was 44.5 nM.
Consider `CN(CCN)Cc1c[nH]nc1-c1ccc(OC2CC2)cc1` [Compound 114], for which the IC50 in assay [1] (setting [3]) was 5.75 nM; in assay [2] (setting [4]), 16.2 nM.
For the molecule `CC[C@H](C)Oc1ccc(-c2n[nH]cc2CN(C)CCNC)cc1` [Compound 309], the concentration for half-maximal inhibition (IC50) in assay [1] was less than 100 nM; in assay [1] (setting [3]), 6.7 nM; in assay [2] (Biochemical IC50 PRMT6) it was less than 100 nM; in assay [2] (setting [4]) it was 15.2 nM.
As to `CNCCN(C)Cc1c[nH]nc1-c1ccc(OC2CCC2)cc1` [Compound 304], the IC50 in assay [1] was less than 100 nM; in assay [1] (setting [3]) it was 6.59 nM; in assay [2] (Biochemical IC50 PRMT6), less than 100 nM; in assay [2] (setting [4]), 24.1 nM.
`COc1ccc(-c2n[nH]cc2CN(C)CCN)cc1F` [Compound 134]: the IC50 in assay [1] (setting [3]) and in assay [2] (setting [4]) was 10.8 nM each time.
For `Cc1ccc(-c2n[nH]cc2CN(C)CCN)cc1Cl` [Compound 126], the IC50 turned out to be 6.81 nM in assay [1] (setting [3]) and 4.94 nM in assay [2] (setting [4]).
As to `CNCCN(C)Cc1c[nH]nc1-c1ccc(OCC2CCC2)cc1` [Compound 307], the half-inhibitory concentration (IC50) in assay [1] was less than 100 nM; in assay [1] (setting [3]), 5.89 nM; in assay [2] (Biochemical IC50 PRMT6) it was less than 100 nM; in assay [2] (setting [4]), 19.7 nM.
As for `CNCCN(C)Cc1c[nH]nc1-c1ccc(OC2CC2)cc1` [Compound 293], the IC50 is less than 100 nM in assay [1], 13.5 nM in assay [1] (setting [3]), less than 100 nM in assay [2] (Biochemical IC50 PRMT6) and 28.8 nM in assay [2] (setting [4]).

The values are drawn from US9776972B2, “Pyrazole derivatives as arginine methyltransferase inhibitors and uses thereof” (priority 2013, dated 2017).
